Assay results published in paper PMC5267425, “Identification of small molecule modulators of HIV-1 Tat and Rev protein accumulation” (Retrovirology, 2017).

Test system: HIV-1 Gag expression in SupT1 NLESG cells
Test: Gag (p24) ELISA in SupT1 24STNLESG cells after PMA induction
Type: cell-based
Settings: for inhibition of HIV-1 gene expression in CD4+ SupT1 cells: Figure S1; for IC50: Human immunodeficiency virus 1, SUP-T1
Procedure: Additional file 1: Figure S1. 791 and 833 Suppress HIV-1 Gene Expression in SupT1 24NESLG Cell Line. a Schematic of HIV-1 provirus used to generated the stably transduced SupT1 cell line. b Effect of 791 and 833 on Gag expression in SupT1 NLESG cells. Cells were treated with indicated concentrations of 791/833 then HIV-1 expression induced by PMA addition. Media harvested after 24 h was subsequently assayed using Gag (p24) ELISA. Cell viability was measured by an XTT assay. 892 was not active in this cell line at the concentrations tested Additional file 2: Figure S7. Effect of compounds on CEM-GXR cell viability. Evaluation of 791, 833, and 892 on CEM-GXR cell viability in the Guava ViaCount assay. Cells were analyzed after 24 h incubation with the compounds at the indicated concentrations ranging between 0–47 μM (791), 0–5 μM (833), or 0–62.5 μM (892). Results are expressed as the percentage (%) of viable cells relative to DMSO treatment ±SEM of two independent experiments performed in triplicate. Cytotoxic concentration resulting in the death of 50% of the host cells (CC50) relative to DMSO measured by ViaCount assay (Millipore) are listed in Table 1 Additional file 3: Table S1. Mutations in HIV-1 proteins associated with resistance to ARVs Additional file 4: Figure S2.Pattern of HIV-1 RNA splicing. Shown at the top is the organization of the HIV-1 proviral genome indicating the position of the multiple 5′ splice donor sites (SD1–SD4) and 3′ splice acceptor sites (SA1–SA7) used in splicing of pre-mRNA. In the middle is an illustration of the alternatively spliced RNAs generated by processing of the HIV-1 genomic RNA. Indicated are the common (open boxes) and alternative exons (closed boxes) used in the generation of the SS (4 kb) and MS (1.8 kb) viral RNAs. At the bottom is a list of the nomenclature used to refer to the exon composition of the individual RNAs generated for both the SS and MS classes of HIV-1 RNAs Additional file 5: Figure S3. Characterization of HeLa rtTA HIVGagGFP cell line. a Representative images of HeLa rtTA HIVGagGFP C7 cells treated with DMSO in the absence (uninduced) or presence (induced) of doxycyclin (N ≥ 3). Cells were viewed at 630X (oil immersion) magnification. Images are cropped to show a representative field of view. b The dose range of the compounds which inhibit HIV-1 GagGFP expression in HeLa rtTA HIVGagGFP C7 cells was measured by mean fluorescence intensity and expressed relative to fluorescence intensity in DMSO-treated samples (N ≥ 3, *p ≤ 0.05, **p ≤ 0.01, and ***p ≤ 0.001). The effect of the compounds on cellular metabolism at the indicated concentrations was measured using an XTT assay as a readout of viable cells and expressed relative to absorbance reads of DMSO-treated samples (N ≥ 3, *p ≤ 0.05, **p ≤ 0.01, and ***p ≤ 0.001). Error bars indicate standard error of the mean (SEM) Additional file 6: Figure S4. […] MG132 (10 μM) was added for 8 h as an additional control to determine whether inhibition of the proteasome prevents protein degradation. All uninduced (unind.) and 0 h samples were treated with DMSO. GAPDH serves as loading control. b Summary of effect of compounds on HIV-1 Tat degradation. Band volume intensities of both p14 and p16 Tat isoforms were calculated for each treatment relative to that of the DMSO control treatment and were then normalized to corresponding GAPDH bands (N ≥ 3, except for 833, N = 1–2). […]

Row | Structure (SMILES) | inhibition of HIV-1 gene expression in CD4+ SupT1 cells | IC50
1 | Cc1cc(NCc2cccnc2)n2ncc(-c3ccc(Cl)cc3)c2n1 [Compound 791, 3-(4-chlorophenyl)-5-methyl-N-(3-pyridinylmethyl)pyrazolo[1,5-a]pyrimidin-7-amine] | maintained their inhibition | 26 µM
2 | O=C(NC(=S)NNC(=O)c1ccccc1O)c1ccc(-c2ccccc2)cc1 [Compound 833, N-([2-(2-hydroxybenzoyl)hydrazino]carbonothioyl}-4-biphenylcarboxamide] | maintained their inhibition | 3.5 µM
3 | COc1ccc(C=NNC(=O)c2ccccc2O)cc1O [Compound 892, 2-hydroxy-N′-(3-hydroxy-4-methoxybenzylidene)benzohydrazide] | not active | –
